# Assays:
# TRZAS = test: Post-emergence herbicidal effect and crop plant compatibility, greenhouse pot test; format: in vivo, Triticum aestivum; conditions: 20 g/ha, one-leaf stage, rated visually after about 3 weeks vs untreated controls
# Source text: • ALOMY: Alopecurus myosuroides SETVI: Setaria viridis • AVEFA: Avena fatua POLCO: Fallopia convolvulus • AMARE: Amaranthus retroflexus ECHCG: Echinochloa crus-galli • LOLRJ: Lolium rigidum STEME: Stellaria media • VERPE: Veronica persica MATIN: Tripleurospermum inodorum • DIGSA: Digitaria sanguinalis ABUTH: Abutylon threophrasti • TRZAS: Triticum aestivum VIOTR: Viola tricolor • BRSNW: Brassica napus ZEAMX: Zea mays • PHBPU: Ipomoea purpurea GLXMA: Glycine max • ORYSA: Oryza sativa HORMU: Hordeum murinum
# Seeds of monocotyledonous and dicotyledonous weeds and crop plants are placed in sandy loam in plastic or organic planting pots, covered with soil and cultivated in a greenhouse under controlled growth conditions. 2 to 3 weeks after sowing, the trial plants are treated at the one-leaf stage. The compounds of the invention, formulated in the form of wettable powders (WP) or as emulsion concentrates (EC), are then sprayed onto the green parts of the plants as aqueous suspension or emulsion with addition of 0.5% additive at a water application rate of 600 l/ha (converted). After the test plants have been kept in the greenhouse under optimum growth conditions for about 3 weeks, the activity of the preparations is rated visually in comparison to untreated controls. For example, 100% activity=the plants have died, 0% activity=like control plants.
# Tables 20a to 38c below show the effects/crop compatibilities of selected compounds of the general formula (I) on various harmful plants at an application rate corresponding to 20 to 320 g/ha, which were obtained by the trial procedure specified above.
# PHBPU = test: Post-emergence herbicidal effect, greenhouse pot test; format: in vivo, Ipomoea purpurea; conditions: for pest or weed control at 320 g/ha: Ipomoea purpurea, 504 h, read-out: Post-emergence effect against PHBPU in %
# Outline: (§1)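 Greenhouse pot test: weeds and crops sown in sandy loam, sprayed post-emergence at one-leaf stage (2–3 weeks after sowing) with WP or EC formulations plus 0.5% additive at 600 l/ha water, rates 20–320 g/ha. Visual rating about 3 weeks later versus untreated controls (100% = dead, 0% = as control).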
# VERPE = test: as above; format: in vivo, Veronica persica; conditions: for pest or weed control at 80 g/ha / pest or weed control at 320 g/ha: Veronica persica, 504 h, read-out: Post-emergence effect against VERPE in %
# Outline: as §1
# AMARE = test: as above; format: in vivo, Amaranthus retroflexus; conditions: visual rating about 3 weeks after treatment
# Outline: as §1
# POLCO = test: as above; format: in vivo, Fallopia convolvulus
# Outline: as §1
# AVEFA = test: as above; format: in vivo, Avena fatua; conditions: 320 g/ha, visual rating about 3 weeks after treatment
# Outline: as §1
# ALOMY = test: as above; format: in vivo, Alopecurus myosuroides; conditions: 320 g/ha, visual rating about 3 weeks after treatment
# Outline: as §1
# MATIN = test: as above; format: in vivo, Tripleurospermum inodorum
# Outline: as §1
# KCHSC = test: as above; format: in vivo; conditions: 320 g/ha
# Outline: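 Greenhouse plants in sandy loam, sprayed post-emergence at the one-leaf stage (2–3 weeks after sowing) with WP or EC formulations in water plus 0.5% additive at 600 l/ha. Rates 20 to 320 g/ha. Activity rated visually after about 3 weeks against untreated controls (0% like control, 100% dead).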
# VIOTR = test: as above; format: in vivo, Viola tricolor
# Outline: as §1
# ECHCG = test: as above; format: in vivo, Echinochloa crus-galli
# Outline: as §1
# DIGSA = test: as above; format: in vivo, Digitaria sanguinalis; conditions: 320 g/ha, visual rating about 3 weeks after treatment; for pest or weed control at 320 g/ha: Digitaria sanguinalis, 504 h, read-out: Post-emergence effect against DIGSA
# Outline: as §1
# ZEAMX = test: Post-emergence herbicidal effect and crop plant compatibility, greenhouse pot test; format: in vivo, Zea mays; conditions: 20 g/ha, one-leaf stage, rated visually after about 3 weeks vs untreated controls
# Outline: as §1
# SETVI = test: Post-emergence herbicidal effect, greenhouse pot test; format: in vivo, Setaria viridis; conditions: for pest or weed control at 320 g/ha: Setaria viridis, 504 h, read-out: Post-emergence effect against SETVI in %
# Outline: as §1
# ABUTH = test: as above; format: in vivo, Abutilon theophrasti; conditions: visual rating about 3 weeks after treatment
# Outline: as §1
# LOLRI = test: as above; format: in vivo, Lolium rigidum; conditions: Lolium rigidum, 504 h, 320 g/ha, read-out: Post-emergence effect against LOLRI in %
# Outline: as §1
# [1] = Amaranthus retroflexus, 504 h, 320 g/ha, read-out: Post-emergence effect against AMARE
# [2] = Tripleurospermum inodorum, 504 h, 320 g/ha, read-out: Post-emergence effect against MATIN in %
# [3] = Viola tricolor, 504 h, 320 g/ha, read-out: Post-emergence effect against VIOTR in %
# [4] = Echinochloa crus-galli, 504 h, 320 g/ha, read-out: Post-emergence effect against ECHCG in %
# [5] = Abutilon theophrasti, 504 h, 320 g/ha, read-out: Post-emergence effect against ABUTH
smiles,measurement,setting,value
CCOC(Oc1nn(-c2ccccc2F)c(-c2ccc(F)nc2)c1Cl)C(=O)OCC(C)C(=O)OC (racemic) [Example I-54],Post-emergence effect at 20 g/ha against TRZAS in %,TRZAS,0%
same,Post-emergence effect against PHBPU in %,PHBPU; 80 g/ha,90%
same,Post-emergence effect against PHBPU in %,PHBPU; 320 g/ha,90%
same,Post-emergence effect against VERPE in %,VERPE; 20 g/ha,80%
same,Post-emergence effect against VERPE in %,VERPE; 80 g/ha,80%
same,Post-emergence effect against VERPE in %,VERPE; 320 g/ha,90%
same,Post-emergence effect against AMARE,AMARE; 320 g/ha,80%
same,Post-emergence effect against POLCO in %,POLCO; 80 g/ha,80%
same,Post-emergence effect against POLCO in %,POLCO; 320 g/ha,80%
same,Post-emergence effect against AVEFA,AVEFA,90%
same,Post-emergence effect against ALOMY,ALOMY,100%
same,Post-emergence effect against MATIN in %,MATIN; 20 g/ha,80%
same,Post-emergence effect against MATIN in %,MATIN; 80 g/ha,90%
same,Post-emergence effect against MATIN in %,MATIN; 320 g/ha,90%
same,Post-emergence effect against KCHSC in %,KCHSC,80%
same,Post-emergence effect against VIOTR in %,VIOTR; 80 g/ha,80%
same,Post-emergence effect against VIOTR in %,VIOTR; 320 g/ha,80%
same,Post-emergence effect against ECHCG,"ECHCG; 20 g/ha, visual rating about 3 weeks after treatment",80%
same,Post-emergence effect against ECHCG in %,ECHCG; 80 g/ha,90%
same,Post-emergence effect against ECHCG in %,ECHCG; 320 g/ha,90%
same,Post-emergence effect against DIGSA,DIGSA,90%
same,Post-emergence effect at 20 g/ha against ZEAMX in %,ZEAMX,0%
same,Post-emergence effect against SETVI in %,SETVI; 80 g/ha,80%
same,Post-emergence effect against SETVI in %,SETVI; 320 g/ha,90%
same,Post-emergence effect against ABUTH,ABUTH; 320 g/ha,80%
COC(Oc1nn(-c2ccccc2F)c(-c2ccc(F)nc2)c1Br)C(=O)O (stereo not shown) [Example I-25],Post-emergence effect at 20 g/ha against TRZAS in %,TRZAS,10%
same,pest or weed control at 320 g/ha,PHBPU; 320 g/ha,90%
same,pest or weed control at 80 g/ha,VERPE; 80 g/ha,80%
same,pest or weed control at 320 g/ha,VERPE; 320 g/ha,90%
same,pest or weed control at 80 g/ha,"AMARE; Amaranthus retroflexus, 504 h, 80 g/ha, read-out: Post-emergence effect against AMARE",80%
same,pest or weed control at 320 g/ha,AMARE; [1],90%
same,pest or weed control at 320 g/ha,MATIN; [2],80%
same,pest or weed control at 320 g/ha,LOLRI,90%
same,pest or weed control at 320 g/ha,VIOTR; [3],80%
same,pest or weed control at 320 g/ha,ECHCG; [4],80%
same,pest or weed control at 320 g/ha,DIGSA,90%
same,Post-emergence effect at 20 g/ha against ZEAMX in %,ZEAMX,20%
same,pest or weed control at 320 g/ha,SETVI; 320 g/ha,90%
same,pest or weed control at 320 g/ha,ABUTH; [5],80%
COC(Oc1nn(-c2cc(F)ccc2F)c(-c2cncc(F)c2)c1Br)C(=O)O (stereo not shown) [Example I-32],"percent crop injury (phytotoxicity) to wheat, post-emergence at 20 g/ha","TRZAS; Triticum aestivum, 504 h, read-out: Post-emergence effect at 20 g/ha against TRZAS in %",10%
same,pest or weed control at 320 g/ha,PHBPU; 320 g/ha,90%
same,pest or weed control at 80 g/ha,VERPE; 80 g/ha,90%
same,pest or weed control at 320 g/ha,VERPE; 320 g/ha,90%
same,pest or weed control at 320 g/ha,AMARE; [1],80%
same,pest or weed control at 320 g/ha,"POLCO; Fallopia convolvulus, 504 h, 320 g/ha, read-out: Post-emergence effect against POLCO in %",80%
same,pest or weed control at 320 g/ha,"AVEFA; Avena fatua, 504 h, read-out: Post-emergence effect against AVEFA",90%
same,pest or weed control at 80 g/ha,"MATIN; Tripleurospermum inodorum, 504 h, 80 g/ha, read-out: Post-emergence effect against MATIN in %",90%
same,pest or weed control at 320 g/ha,MATIN; [2],90%
same,pest or weed control at 320 g/ha,LOLRI,90%
same,pest or weed control at 80 g/ha,"VIOTR; Viola tricolor, 504 h, 80 g/ha, read-out: Post-emergence effect against VIOTR in %",90%
same,pest or weed control at 320 g/ha,VIOTR; [3],90%
same,pest or weed control at 80 g/ha,"ECHCG; Echinochloa crus-galli, 504 h, 80 g/ha, read-out: Post-emergence effect against ECHCG in %",90%
same,pest or weed control at 320 g/ha,ECHCG; [4],90%
same,pest or weed control at 320 g/ha,DIGSA,90%
same,plant injury at 20 g/ha,"ZEAMX; Zea mays, 504 h, read-out: Post-emergence effect at 20 g/ha against ZEAMX in %",10%
same,pest or weed control at 320 g/ha,SETVI; 320 g/ha,90%
same,pest or weed control at 80 g/ha,"ABUTH; Abutilon theophrasti, 504 h, 80 g/ha, read-out: Post-emergence effect against ABUTH",80%
same,pest or weed control at 320 g/ha,ABUTH; [5],90%

# Source: patent US20240391862A1, “(1,4,5-TRISUBSTITUTED-1H-PYRAZOL-3-YL)OXY-2-ALKOXY ALKYL ACIDS AND THEIR DERIVATIVES, THEIR SALTS AND THEIR USE AS HERBICIDAL AGENTS” (Bayer AKtiengesellschaft, priority 2021, published 2024)
